The target in assay [1] is T1, Human recombinant PDE2A (hPDE2A) (Homo sapiens, UniProt O00408).
T1 construct: His tag (inferred from metal chelate purification); made in house; host or cells: Sf9 insect cells (baculovirus)
The assay is described as follows: In vitro assay PDE2A (SPA, 3H-cGMP hydrolysis). Type of assay: biochemical. The note with it: for IC50: read-out: hPDE2A pIC50 (converted); for Emax: read-out: hPDE2A Emax.

The target of assay [2] is T2, Human recombinant PDE3A (hPDE3A) (Homo sapiens, UniProt Q14432).
T2 construct: purchased Scottish Biomedical; host or cells: Sf9 insect cells
Description: In vitro assay PDE3A (SPA, 3H-cAMP hydrolysis).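 Note: the method names PDE3A and the table heading PDE3B.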 The assay is classed as biochemical. In short, it runs like this:
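Human PDE3A, cloned from brain, as partially purified Sf9 lysate. Substrate 0.4 μM cAMP plus [3H]-cAMP (2.4 μCi/ml final) in 50 mM Tris pH 7.8, 8.3 mM MgCl2, 1.7 mM EGTA, 60 min at room temperature, 1% DMSO final. Hydrolysis read by SPA scintillation counting against no-enzyme blanks and DMSO controls.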

The target of assay [3] is T3, Human recombinant PDE10A (hPDE10A) (Homo sapiens, UniProt Q9Y233).
T3 construct: His tag (inferred from metal chelate purification); made in house; host or cells: Sf9 insect cells (baculovirus)
Description: In vitro assay PDE10A, human clone (SPA, 3H-cAMP hydrolysis). The conditions noted are these: human clone (h), default. Type of assay: biochemical. In outline: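 Human recombinant PDE10A was expressed in Sf9 cells via baculovirus and incubated with compound in 50 mM Tris pH 7.8, 8.3 mM MgCl2, 1.7 mM EGTA. Substrate was 60 nM cAMP plus 0.008 μCi 3H-cAMP for 60 min at room temperature, read by SPA scintillation counting. Controls used 1% DMSO, and blanks omitted enzyme.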

Assay [4] addresses T4, PDE2A (Rattus norvegicus, UniProt Q01062).
T4 construct: Twenty μm-thick striatal sections were cut; from tissue; host or cells: rat brain, striatal sections
T4 sequence (Q01062 1-928): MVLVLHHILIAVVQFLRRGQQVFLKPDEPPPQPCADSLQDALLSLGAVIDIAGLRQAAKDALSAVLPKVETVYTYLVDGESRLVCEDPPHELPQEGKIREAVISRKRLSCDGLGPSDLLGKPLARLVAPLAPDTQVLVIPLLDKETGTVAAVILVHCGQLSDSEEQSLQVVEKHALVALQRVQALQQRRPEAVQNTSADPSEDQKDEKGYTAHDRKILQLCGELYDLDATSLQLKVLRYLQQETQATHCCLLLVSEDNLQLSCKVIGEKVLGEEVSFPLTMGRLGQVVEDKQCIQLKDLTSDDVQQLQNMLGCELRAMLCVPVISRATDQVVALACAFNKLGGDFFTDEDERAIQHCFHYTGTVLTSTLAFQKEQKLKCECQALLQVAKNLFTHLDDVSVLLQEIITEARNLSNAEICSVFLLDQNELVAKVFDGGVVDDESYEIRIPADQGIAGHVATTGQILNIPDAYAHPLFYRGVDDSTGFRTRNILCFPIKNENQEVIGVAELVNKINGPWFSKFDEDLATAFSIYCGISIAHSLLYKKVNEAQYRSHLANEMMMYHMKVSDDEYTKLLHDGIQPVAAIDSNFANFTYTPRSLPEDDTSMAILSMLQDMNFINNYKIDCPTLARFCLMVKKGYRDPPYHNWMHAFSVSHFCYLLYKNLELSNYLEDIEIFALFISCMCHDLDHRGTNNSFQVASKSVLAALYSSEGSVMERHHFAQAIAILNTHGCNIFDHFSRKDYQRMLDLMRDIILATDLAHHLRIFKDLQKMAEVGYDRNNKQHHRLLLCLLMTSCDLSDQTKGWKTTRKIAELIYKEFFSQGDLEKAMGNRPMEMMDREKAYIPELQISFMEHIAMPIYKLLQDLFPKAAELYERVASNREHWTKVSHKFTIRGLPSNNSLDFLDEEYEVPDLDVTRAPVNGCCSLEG
Description: PDE2 occupancy by test compounds, ex-vivo autoradiography with [3H]B-17a. The assay is classed as in vivo, Male Wistar rats. The conditions noted are these: sc, 10 mg/kg, route SC (subcutaneous), percentage receptor occupancy, ex-vivo autoradiography, striatum.

In general, Emax refers to the greatest response seen or fitted, relative to the assay's reference.

The structures appear in SMILES notation. Like-named read-outs stand apart in the source and are kept apart here.

T1 sequence (O00408 whole entry): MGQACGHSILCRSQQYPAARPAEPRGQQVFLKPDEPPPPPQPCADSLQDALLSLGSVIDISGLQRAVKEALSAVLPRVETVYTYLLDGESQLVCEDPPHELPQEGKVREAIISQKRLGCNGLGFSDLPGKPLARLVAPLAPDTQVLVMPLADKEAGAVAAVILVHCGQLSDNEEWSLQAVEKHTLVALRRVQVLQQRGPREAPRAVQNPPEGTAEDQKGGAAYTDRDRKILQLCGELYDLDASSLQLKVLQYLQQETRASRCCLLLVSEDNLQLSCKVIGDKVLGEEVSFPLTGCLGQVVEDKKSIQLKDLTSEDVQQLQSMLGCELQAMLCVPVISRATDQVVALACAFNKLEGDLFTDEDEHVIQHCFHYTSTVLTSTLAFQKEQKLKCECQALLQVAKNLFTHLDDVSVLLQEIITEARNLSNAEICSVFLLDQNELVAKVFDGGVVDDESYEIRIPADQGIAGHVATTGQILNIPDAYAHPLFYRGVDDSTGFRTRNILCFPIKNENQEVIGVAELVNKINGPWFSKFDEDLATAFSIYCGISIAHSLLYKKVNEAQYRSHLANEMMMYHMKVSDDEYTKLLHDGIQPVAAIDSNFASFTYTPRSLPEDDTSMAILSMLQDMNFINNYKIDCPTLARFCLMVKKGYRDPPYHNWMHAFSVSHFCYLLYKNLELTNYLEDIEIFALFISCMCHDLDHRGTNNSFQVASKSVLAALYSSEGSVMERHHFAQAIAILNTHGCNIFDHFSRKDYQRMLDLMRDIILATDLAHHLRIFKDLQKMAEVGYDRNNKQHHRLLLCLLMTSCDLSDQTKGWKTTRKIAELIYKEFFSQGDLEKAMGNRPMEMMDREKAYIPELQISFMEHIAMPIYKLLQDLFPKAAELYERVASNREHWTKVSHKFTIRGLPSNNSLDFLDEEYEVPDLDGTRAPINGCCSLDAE
T2 sequence (Q14432 whole entry): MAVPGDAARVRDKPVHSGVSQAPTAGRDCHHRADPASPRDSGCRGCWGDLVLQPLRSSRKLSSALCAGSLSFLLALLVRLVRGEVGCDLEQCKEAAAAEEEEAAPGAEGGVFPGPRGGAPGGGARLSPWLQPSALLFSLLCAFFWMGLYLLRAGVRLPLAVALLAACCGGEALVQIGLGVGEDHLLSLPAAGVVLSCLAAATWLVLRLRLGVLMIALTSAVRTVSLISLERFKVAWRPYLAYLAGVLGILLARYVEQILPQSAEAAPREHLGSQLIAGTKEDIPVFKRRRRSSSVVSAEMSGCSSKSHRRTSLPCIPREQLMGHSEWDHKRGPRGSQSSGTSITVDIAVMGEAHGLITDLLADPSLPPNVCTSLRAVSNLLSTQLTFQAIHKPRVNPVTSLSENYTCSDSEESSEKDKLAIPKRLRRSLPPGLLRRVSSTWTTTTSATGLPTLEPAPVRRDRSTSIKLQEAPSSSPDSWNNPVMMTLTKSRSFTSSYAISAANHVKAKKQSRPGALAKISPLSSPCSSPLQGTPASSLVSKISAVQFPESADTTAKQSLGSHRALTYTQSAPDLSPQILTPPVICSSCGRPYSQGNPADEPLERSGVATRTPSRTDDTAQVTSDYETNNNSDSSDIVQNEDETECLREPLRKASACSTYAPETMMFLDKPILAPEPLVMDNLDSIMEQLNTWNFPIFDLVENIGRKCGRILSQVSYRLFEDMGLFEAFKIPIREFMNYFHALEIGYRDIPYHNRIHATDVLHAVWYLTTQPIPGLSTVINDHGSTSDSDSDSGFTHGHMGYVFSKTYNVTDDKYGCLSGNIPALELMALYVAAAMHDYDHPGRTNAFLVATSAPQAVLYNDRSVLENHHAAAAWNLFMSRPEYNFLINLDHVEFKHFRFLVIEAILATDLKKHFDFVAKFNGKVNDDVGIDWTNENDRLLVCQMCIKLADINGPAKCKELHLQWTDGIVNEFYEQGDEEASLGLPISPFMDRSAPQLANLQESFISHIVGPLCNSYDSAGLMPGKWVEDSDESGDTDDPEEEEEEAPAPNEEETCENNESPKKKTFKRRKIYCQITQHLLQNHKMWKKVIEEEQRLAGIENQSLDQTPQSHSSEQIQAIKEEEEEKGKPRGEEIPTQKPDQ
T3 sequence (Q9Y233 267-1055): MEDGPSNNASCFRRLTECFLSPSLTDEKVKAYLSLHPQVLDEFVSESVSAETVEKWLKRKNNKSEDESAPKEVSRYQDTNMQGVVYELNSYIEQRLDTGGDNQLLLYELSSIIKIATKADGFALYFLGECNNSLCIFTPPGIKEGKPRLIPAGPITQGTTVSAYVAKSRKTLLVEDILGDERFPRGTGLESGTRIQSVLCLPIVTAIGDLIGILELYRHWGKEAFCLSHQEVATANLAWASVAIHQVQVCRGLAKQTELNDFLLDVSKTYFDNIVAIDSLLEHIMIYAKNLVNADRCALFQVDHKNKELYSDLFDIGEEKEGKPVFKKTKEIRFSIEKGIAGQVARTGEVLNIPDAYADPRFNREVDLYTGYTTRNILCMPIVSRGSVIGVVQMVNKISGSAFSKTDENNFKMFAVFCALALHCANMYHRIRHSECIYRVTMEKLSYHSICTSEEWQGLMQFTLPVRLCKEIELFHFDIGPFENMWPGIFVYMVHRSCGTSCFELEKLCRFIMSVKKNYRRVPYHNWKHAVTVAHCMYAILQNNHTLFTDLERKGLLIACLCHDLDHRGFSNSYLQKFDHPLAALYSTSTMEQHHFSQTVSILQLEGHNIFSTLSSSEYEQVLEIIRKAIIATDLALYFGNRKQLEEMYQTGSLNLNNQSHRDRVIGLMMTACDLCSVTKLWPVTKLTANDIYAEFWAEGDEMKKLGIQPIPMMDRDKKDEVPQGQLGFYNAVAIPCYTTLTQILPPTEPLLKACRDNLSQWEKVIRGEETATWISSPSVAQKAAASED

`C[C@@H]1CCN(C(=O)c2ccc3c(ccn3CCF)c2)C[C@H]1c1cc(C(F)F)nc2ncnn12` [Compound 89]: the IC50 in assay [1] (human recombinant PDE2A, 10 μM cGMP substrate) was 0.229 nM; in assay [1] it was 0.229 nM; in assay [2] (hPDE3B pIC50, read-out: pIC50 (converted)) it was 145 nM; in assay [3] (read-out: hPDE10A2 pIC50 (converted)) it was 20.9 nM. Also, the Emax in assay [1] (human recombinant PDE2A) worked out at 104%; in assay [1] it was 104%; in assay [2] (read-out: hPDE3B Emax, read-out: Emax) it was 96%; in assay [3] (read-out: hPDE10A2 Emax) it was 101%. The receptor occupancy at 10 mg/kg in assay [4] was found to be 88%.

These data come from US10947242B2, “[1,2,4]triazolo[1,5and#8208;A]pyrimidine compounds as PDE2 inhibitors” (Janssen Pharmaceutica NV, priority 2016, dated 2021).
